Source: patent US20230406860A1, “HETEROCYCLIC SPIRO COMPOUNDS AND METHODS OF USE” (AMGEN INC., priority 2020, published 2023)

Tests used:
[1] = tested on: extracellular signal-regulated kinase (ERK); conditions: preclinical studies; cited from earlier work
[2] = tested on: MIA PaCa-2 (human pancreatic carcinoma) cells; test: Cell viability assay (CellTiter-Glo), MIA PaCa-2; format: cell-based; conditions: 72 h
In short: (§1)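 Cells grown in RPMI 1640 with 10% FBS were seeded at 1.67E+04 cells/mL and left overnight at 37° C., 5% CO2. They were then exposed to serially diluted compound for 72 h, after which CellTiter-Glo luminescence was read, normalized to DMSO, and fitted to a 4-parameter logistic model for IC50.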

[3] = tested on: A549 (human lung carcinoma) cells; test: Cell viability assay (CellTiter-Glo), A549; format: cell-based; conditions: 72 h
In short: as §1

[4] = biological target: GDP-bound KRAS protein (aa 1-169), containing both G12C and C118A amino acid substitutions (Homo sapiens, UniProt P01116, C118A/G12C); test: Coupled nucleotide exchange assay (SOS-mediated, AlphaScreen); format: biochemical; conditions: 2 h compound pre-incubation; read-out: Avg 2 h Coupled exchange IC50
Chain of GDP-bound KRAS protein (aa 1-169), containing both G12C and C118A amino acid substitutions (P01116 1-169 isoform P01116-2 G12C/C118A): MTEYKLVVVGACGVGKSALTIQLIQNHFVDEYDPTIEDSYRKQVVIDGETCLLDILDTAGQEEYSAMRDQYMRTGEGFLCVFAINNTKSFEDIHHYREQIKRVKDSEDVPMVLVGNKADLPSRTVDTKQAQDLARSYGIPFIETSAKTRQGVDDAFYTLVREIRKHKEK
Experimental: Coupled Nucleotide Exchange Assay:
For all subsequent steps, DTT was added to the reaction buffer at a final concentration of 1 mM. […] The assay plates were then read on a plate reader measuring luminescence signal. Signal intensity of compound-containing wells were normalized to DMSO control, and data were analyzed using a 4-parameter logistic model to calculate IC50 values.

Structure (SMILES) | inhibition of ERK phosphorylation [1] | IC50 [2] | IC50 [3] | IC50 [4]
C=CC(=O)N1CCN(c2nc(=O)n(-c3c(C)ccnc3C(C)C)c3nc(-c4c(O)cccc4F)c(F)cc23)[C@@H](C)C1 [AMG 510] | inhibited nearly all detectable phosphorylation | – | – | –
C=CC(=O)N1CC2(CCN(c3nc(N[C@H](CC(=O)NC)CC(C)C)c4ncc(OC)cc4n3)C2)C1 [Example 1-42, (3S)-3-((7-methoxy-2-(2-(2-propenoyl)-2,6-diazaspiro[3.4]octan-6-yl)pyrido[3,2-d]pyrimidin-4-yl)amino)-N,5-dimethylhexanamide] | – | 296 nM | > 5000 nM | 22 nM
C=CC(=O)N1CC2(CCN(c3nc4c(c(N[C@H](Cc5nccs5)CC(C)C)n3)CCC(C)(C)C4)C2)C1 [Example 1-43, 1-(6-(7,7-dimethyl-4-(((2S)-4-methyl-1-(1,3-thiazol-2-yl)-2-pentanyl)amino)-5,6,7,8-tetrahydro-2-quinazolinyl)-2,6-diazaspiro[3.4]octan-2-yl)-2-propen-1-one] | – | 205 nM | 13500 nM | 121 nM
C=CC(=O)N1CC2(CCN(c3nc4c(c(N[C@H](Cc5noc(C)n5)CC(C)C)n3)CCC(C)(C)C4)C2)C1 [Example 1-44, 1-(6-(7,7-dimethyl-4-(((2S)-4-methyl-1-(5-methyl-1,2,4-oxadiazol-3-yl)-2-pentanyl)amino)-5,6,7,8-tetrahydro-2-quinazolinyl)-2,6-diazaspiro[3.4]octan-2-yl)-2-propen-1-one] | – | 316 nM | 21900 nM | 380 nM
C=CC(=O)N1CC2(CCN(c3nc4c(c(N[C@@H](CC(C)C)Cn5cncn5)n3)CCC(C)(C)C4)C2)C1 [Example 1-45, 1-(6-(7,7-dimethyl-4-(((2S)-4-methyl-1-(1H-1,2,4-triazol-1-yl)-2-pentanyl)amino)-5,6,7,8-tetrahydro-2-quinazolinyl)-2,6-diazaspiro[3.4]octan-2-yl)-2-propen-1-one] | – | 985 nM | > 25000 nM | 1510 nM
C=CC(=O)N1CC2(CCN(c3nc4c(c(N[C@@H](CC(C)C)Cn5cccn5)n3)CCC(C)(C)C4)C2)C1 [Example 1-46, 1-(6-(7,7-dimethyl-4-(((2S)-4-methyl-1-(1H-pyrazol-1-yl)-2-pentanyl)amino)-5,6,7,8-tetrahydro-2-quinazolinyl)-2,6-diazaspiro[3.4]octan-2-yl)-2-propen-1-one] | – | 122 nM | 20200 nM | 162 nM
C=CC(=O)N1CC2(CCN(c3nc4c(c(N[C@H](Cc5ccon5)CC(C)C)n3)CCC(C)(C)C4)C2)C1 [Example 1-48, 1-(6-(7,7-dimethyl-4-(((2S)-4-methyl-1-(1,2-oxazol-3-yl)-2-pentanyl)amino)-5,6,7,8-tetrahydro-2-quinazolinyl)-2,6-diazaspiro[3.4]octan-2-yl)-2-propen-1-one] | – | 49 nM | 15800 nM | 53 nM
C=CC(=O)N1CC2(CCN(c3nc4c(c(N[C@H](Cc5cc(C)no5)CC(C)C)n3)CCC(C)(C)C4)C2)C1 [Example 1-49, 1-(6-(7,7-dimethyl-4-(((2S)-4-methyl-1-(3-methyl-1,2-oxazol-5-yl)-2-pentanyl)amino)-5,6,7,8-tetrahydro-2-quinazolinyl)-2,6-diazaspiro[3.4]octan-2-yl)-2-propen-1-one] | – | 218 nM | 11600 nM | 93 nM
C=CC(=O)N1CC2(CCN(c3nc4c(c(N[C@H](CC(=O)NC)Cc5ccccc5)n3)CCC(C)(C)C4)C2)C1 [Example 1-50, (3S)-3-((7,7-dimethyl-2-(2-(2-propenoyl)-2,6-diazaspiro[3.4]octan-6-yl)-5,6,7,8-tetrahydro-4-quinazolinyl)amino)-N-methyl-4-phenylbutanamide] | – | 587 nM | > 25000 nM | 1310 nM
C=CC(=O)N1CC2(CCN(c3nc4c(c(N[C@H](Cc5nnc(C)s5)CC(C)C)n3)CCC(C)(C)C4)C2)C1 [Example 1-51, 1-(6-(7,7-dimethyl-4-(((2S)-4-methyl-1-(5-methyl-1,3,4-thiadiazol-2-yl)-2-pentanyl)amino)-5,6,7,8-tetrahydro-2-quinazolinyl)-2,6-diazaspiro[3.4]octan-2-yl)-2-propen-1-one] | – | 3540 nM | > 5000 nM | 50 nM
C=CC(=O)N1CC2(CCN(c3nc4c(c(N[C@H](Cc5nnc(C)o5)CC(C)C)n3)CCC(C)(C)C4)C2)C1 [Example 1-52, 1-(6-(7,7-dimethyl-4-(((2S)-4-methyl-1-(5-methyl-1,3,4-oxadiazol-2-yl)-2-pentanyl)amino)-5,6,7,8-tetrahydro-2-quinazolinyl)-2,6-diazaspiro[3.4]octan-2-yl)-2-propen-1-one] | – | 1410 nM | > 5000 nM | 39 nM
C=CC(=O)N1CC2(CCN(c3nc4c(c(N[C@H](Cc5cc(C)on5)CC(C)C)n3)CCC(C)(C)C4)C2)C1 [Example 1-53, 1-(6-(7,7-dimethyl-4-(((2S)-4-methyl-1-(5-methyl-1,2-oxazol-3-yl)-2-pentanyl)amino)-5,6,7,8-tetrahydro-2-quinazolinyl)-2,6-diazaspiro[3.4]octan-2-yl)-2-propen-1-one] | – | 994 nM | > 5000 nM | 24 nM
C=CC(=O)N1CC2(CCN(c3nc4c(c(N[C@H](Cc5ncc[nH]5)CC(C)C)n3)CCC(C)(C)C4)C2)C1 [Example 1-54, 1-(6-(4-(((2S)-1-(1H-imidazol-2-yl)-4-methyl-2-pentanyl)amino)-7,7-dimethyl-5,6,7,8-tetrahydro-2-quinazolinyl)-2,6-diazaspiro[3.4]octan-2-yl)-2-propen-1-one] | – | 1320 nM | > 5000 nM | 49 nM
C=CC(=O)N1CC2(CCN(c3nc4c(c(N[C@H](Cc5c[nH]nn5)CC(C)C)n3)CCC(C)(C)C4)C2)C1 [Example 1-55, 1-(6-(7,7-dimethyl-4-(((2S)-4-methyl-1-(1H-1,2,3-triazol-4-yl)-2-pentanyl)amino)-5,6,7,8-tetrahydro-2-quinazolinyl)-2,6-diazaspiro[3.4]octan-2-yl)-2-propen-1-one] | – | 1270 nM | > 5000 nM | 57 nM
C=CC(=O)N1CC2(CCN(c3nc(N[C@H](CC(=O)NC)CC(C)C)c4ccncc4n3)C2)C1 [Example 1-56] | – | > 5000 nM | > 25000 nM | 4840 nM
C=CC(=O)N1CC2(CCN(c3nc4c(c(N[C@H](Cc5ncco5)CC(C)C)n3)CCCC4)C2)C1 [Example 1-57, 1-(6-(4-(((2S)-4-methyl-1-(1,3-oxazol-2-yl)-2-pentanyl)amino)-5,6,7,8-tetrahydro-2-quinazolinyl)-2,6-diazaspiro[3.4]octan-2-yl)-2-propen-1-one] | – | 2490 nM | 17900 nM | 2100 nM
C=C(C(=O)N1CC2(CCN(c3nc(N[C@H](CC(=O)NC)CC(C)C)c4ccc(C)cc4n3)C2)C1)C(F)(F)F [Example 1-58, (3S)-N,5-dimethyl-3-((7-methyl-2-(2-(2-(trifluoromethyl)-2-propenoyl)-2,6-diazaspiro[3.4]octan-6-yl)-4-quinazolinyl)amino)hexanamide] | – | 1840 nM | 13500 nM | 403 nM
C=CC(=O)N1CC2(CCN(c3nc(N[C@H](CC(=O)NC)CC(C)C)c4ccc(-c5nccs5)cc4n3)C2)C1 [Example 1-59, (3S)-N,5-dimethyl-3-((2-(2-(2-propenoyl)-2,6-diazaspiro[3.4]octan-6-yl)-7-(1,3-thiazol-2-yl)-4-quinazolinyl)amino)hexanamide] | – | 16 nM | 7860 nM | 10 nM
C=CC(=O)N1CC2(CCN(c3nc4c(c(N[C@@H](CC(C)C)C(=O)NC)n3)CCCC4)C2)C1 [Example 1-60, (S)-2-((2-(2-acryloyl-2,6-diazaspiro[3.4]octan-6-yl)-5,6,7,8-tetrahydroquinazolin-4-yl)amino)-N,4-dimethylpentanamide] | – | 7060 nM | 17900 nM | 8280 nM
